Reference: PMC6508677, “Identification of druggable small molecule antagonists of the Plasmodium falciparum hexose transporter PfHT and assessment of ligand access to the glucose permeation pathway via FLAG-mediated protein engineering” (PLoS ONE, 2019)
Several values for one entry are separate records, joined by “and”; a condition that tells them apart may be missing. Equal entries are not always repeated. Where two headings read alike, the source gives them in different places.

Target: T1, PfHT (Plasmodium falciparum, UniProt Q7KWJ5)
T1 sequence (Q7KWJ5 1-504): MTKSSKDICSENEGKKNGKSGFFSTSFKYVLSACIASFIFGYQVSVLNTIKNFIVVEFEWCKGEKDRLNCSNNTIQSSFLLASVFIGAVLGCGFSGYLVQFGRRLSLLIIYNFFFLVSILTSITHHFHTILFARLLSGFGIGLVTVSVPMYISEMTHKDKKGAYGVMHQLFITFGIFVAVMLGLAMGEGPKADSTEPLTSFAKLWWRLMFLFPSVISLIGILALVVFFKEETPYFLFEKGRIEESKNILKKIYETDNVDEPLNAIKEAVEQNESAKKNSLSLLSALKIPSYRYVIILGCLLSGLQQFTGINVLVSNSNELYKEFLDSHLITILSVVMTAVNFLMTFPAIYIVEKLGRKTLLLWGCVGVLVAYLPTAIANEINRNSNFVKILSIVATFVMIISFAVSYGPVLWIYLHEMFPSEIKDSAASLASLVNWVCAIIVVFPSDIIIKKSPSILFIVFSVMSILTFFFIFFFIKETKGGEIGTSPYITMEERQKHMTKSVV
Experiment: 2-DG uptake by HEK293 cells overexpressing PfHT
Format: cell-based
Parameters: expressed in transfected cells; host or cells: HEK293 (HEK293-FLIP, native hGLUT1 knocked down by shRNA)
Conditions: for Maximum Inhibition (%): 2-DG uptake, PfHT cell line; for remaining activity at 0.001 µM / remaining activity at 0.09375 µM / remaining activity at 0.1875 µM / remaining activity at 0.3125 µM / remaining activity at 0.375 µM / remaining activity at 0.625 µM / remaining activity at 0.75 µM / remaining activity at 1.25 µM / remaining activity at 2.5 µM / remaining activity at 5 µM / remaining activity at 10 µM / remaining activity at 20 µM / remaining activity at 40 µM / remaining activity at 80 µM / remaining activity at 160 µM / remaining activity at 225 µM / inhibition at 5 µM: HEK293, 4 min; for inhibition at 5 µM: read-out: % Inhibition of 2-DG uptake vs vehicle
Description: Generation of HEK293 cells overexpressing PfHT and human GLUTs 1–4 were described elsewhere. Briefly, HEK293 cells were transfected with pcDNA3.1 FLII12Pglu-7006 (Addgene), containing the fluorescence resonance energy transfer (FRET) glucose sensor (HEK293-FLIP) and PfHT, human GLUT1 (hGLUT1), hGLUT2, hGLUT3, hGLUT4, hGLUT5 or hGLUT8 using Optifect (Life Technologies) according to manufacturer’s specifications. To increase retention of GLUT8 at the plasma membrane, the dileucine sorting signal E^7E^8XXXLL was modified to R^7R^8XXXLL as described in [17]. Stable transfectants were selected for G418 and hygromycin resistance to select for FRET sensor and hexose transporter, respectively. HEK293-FLIP cells were also used to generate cells stably transfected with FLAG-tagged PfHT (FTPfHT). FLAG tag ([…]) followed by a triple glycine linker and a tobacco etch virus (TEV) protease site (ENLYFQS) followed by a triple glycine linker was added to the N-terminus of PfHT via PCR [18] using Phusion Hot Start II High-Fidelity DNA Polymerase (Fisher Scientific). Single clones were selected by comparing their abilities to transport glucose as assayed via FRET and radiolabeled hexose uptake. In all cell lines, except for HEK293 cells overexpressing hGLUT1 and hGLUT5, native hGLUT1 was knocked down using shRNA as described elsewhere. Transcript levels of the individual GLUTs expressed in each cell line are as described in [13, 15] and in S1 Fig.
Glucose uptake by P. falciparum was performed essentially as described. P. falciparum strain 3D7 was cultured in 100 mm tissue culture dishes (Techno Plastic Products) in a 2% suspension of human erythrocytes and RPMI 1640 medium until reaching > 7.5% parasitemia. Cells were pelleted via centrifugation and resuspended in RPMI 1640 medium. To determine the uptake of radiolabeled glucose into the parasite, parasites were isolated from infected erythrocytes by permeablization with saponin (0.05 w/v), followed by centrifugation, aspiration of supernatant and washing of the pellet 3X with saline solution (135 mM NaCl, 2 mM KCl, 25 mM HEPES, 0.2 mM glucose and 1 mM MgCl2; pH 7.1) to remove cellular debris. WU-1 or DMSO vehicle were added to 100 μl parasites (resuspended in saline) 5 min prior to the addition of 100 μl [^14C]2-DOG (0.2- μCi/ml final concentration). 2-DG uptake was stopped after 2 min by layering the entire reaction over 300 μl of an oil mixture (5:4 mix of dibutyl phthalate / dinonyl phthalate) in Eppendorf tubes and centrifuged at 15,850 × g for 2 mins. The ratio of the estimated intracellular concentration of radiolabel relative to the extracellular concentration were calculated as described. Uptake of radiolabeled hexose into HEK293 cells was measured in glucose-free HBSS as described previously. Briefly, cells were plated at 400,000 cells/well overnight at 37°C in 24-well plates pre-treated with PEI. After 30-min incubation at 37°C in glucose-free HBSS in the presence of vehicle or increasing concentrations of compound, 2-DG uptake was measured in glucose-free HBSS for 4 min at 37°C. Cultures were washed in ice-cold 1X PBS and lysed in 0.1% Triton X-100 in 1X PBS. Radiolabeled hexose uptake was determined by liquid scintillation counting (Ultima Gold, Thermo Fisher) and normalized to total protein per well. Uptake data are plotted as percent uptake relative to vehicle-treated cells. Kinetic analyses were performed using the indicated concentrations of substrate and WU-1, with quenching of uptake after 1 min incubation. Incubation times had been previously determined as being in the linear range of time-dependent radiolabeled hexose uptake (2 min for 2-DG uptake into freed parasites; 2 and 4 min for D-Frc and 2-DG uptake HEK cell lines, respectively). Data were fit by least squares nonlinear regression analysis using GraphPad Prism 6.0 software.

[1] = read-out: 2-DG uptake (percent uptake relative to vehicle), AVE, PfHT, 0.001 µM compound
[2] = read-out: 2-DG uptake (percent uptake relative to vehicle), AVE, PfHT, 0.09375 µM compound
[3] = read-out: 2-DG uptake (percent uptake relative to vehicle), AVE, PfHT, 0.1875 µM compound
[4] = read-out: 2-DG uptake (percent uptake relative to vehicle), AVE, PfHT, 0.3125 µM compound (0.313 in Fig 1 sheet for WU-1)
[5] = read-out: 2-DG uptake (percent uptake relative to vehicle), AVE, PfHT, 0.375 µM compound
[6] = read-out: 2-DG uptake (percent uptake relative to vehicle), AVE, PfHT, 0.625 µM compound
[7] = read-out: 2-DG uptake (percent uptake relative to vehicle), AVE, PfHT, 1.25 µM compound
[8] = read-out: 2-DG uptake (percent uptake relative to vehicle), AVE, PfHT, 2.5 µM compound
[9] = read-out: 2-DG uptake (percent uptake relative to vehicle), AVE, PfHT, 5 µM compound
[10] = read-out: 2-DG uptake (percent uptake relative to vehicle), AVE, PfHT, 10 µM compound
[11] = read-out: 2-DG uptake (percent uptake relative to vehicle), AVE, PfHT, 20 µM compound
[12] = read-out: 2-DG uptake (percent uptake relative to vehicle), AVE, PfHT, 40 µM compound
[13] = IC50 for inhibition of 2-DG uptake, HEK293 cells overexpressing PfHT, mean/reported value
[14] = IC50 for inhibition of 2-DG uptake, individual experiments, HEK293 PfHT, Expt 1-3

Cc1ccc(S(=O)(=O)CCNC(=O)c2c(-c3c(Cl)cccc3Cl)noc2C)cc1 [WU-1, 3-(2,6-dichlorophenyl)-5-methyl-N-[2-(4-methylbenzenesulfonyl)ethyl]-1,2-oxazole-4-carboxamide]
Maximum Inhibition (%): 93.2%
remaining activity at 0.001 µM (read-out: 2-DG Uptake AVE, PfHT, concentration 0.001 µM, Expt 1-3): 100%
remaining activity at 0.09375 µM (read-out: 2-DG Uptake AVE, PfHT, concentration 0.09375 µM): 91.6%
remaining activity at 0.1875 µM (read-out: 2-DG Uptake AVE, PfHT, concentration 0.1875 µM): 88.9%
remaining activity at 0.3125 µM (read-out: 2-DG Uptake AVE, PfHT, concentration 0.3125 µM): 90.1%
remaining activity at 0.375 µM (read-out: 2-DG Uptake AVE, PfHT, concentration 0.375 µM): 85.8%
remaining activity at 0.625 µM (read-out: 2-DG Uptake AVE, PfHT, concentration 0.625 µM): 85.2%
remaining activity at 0.75 µM (read-out: 2-DG Uptake AVE, PfHT, concentration 0.75 µM): 76.1%
remaining activity at 1.25 µM (read-out: 2-DG Uptake AVE, PfHT, concentration 1.25 µM): 64.5%
remaining activity at 2.5 µM (read-out: 2-DG Uptake AVE, PfHT, concentration 2.5 µM): 70.2%
remaining activity at 5 µM (read-out: 2-DG Uptake AVE, PfHT, concentration 5 µM): 49.8%
remaining activity at 10 µM (read-out: 2-DG Uptake AVE, PfHT, concentration 10 µM): 34.7%
remaining activity at 20 µM (read-out: 2-DG Uptake AVE, PfHT, concentration 20 µM): 21.1%
remaining activity at 40 µM (read-out: 2-DG Uptake AVE, PfHT, concentration 40 µM): 20.4%
remaining activity at 80 µM (read-out: 2-DG Uptake AVE, PfHT, concentration 80 µM): 8.82%
remaining activity at 160 µM (read-out: 2-DG Uptake AVE, PfHT, concentration 160 µM): 5.63%
remaining activity at 225 µM (read-out: 2-DG Uptake AVE, PfHT, concentration 225 µM): 5.69%
remaining activity at 0.001 µM [1]: 100%
remaining activity at 0.09375 µM [2]: 91.6%
remaining activity at 0.1875 µM [3]: 88.9%
remaining activity at 0.3125 µM [4]: 90.2%
remaining activity at 0.375 µM [5]: 85.8%
remaining activity at 0.625 µM [6]: 85.3%
remaining activity at 0.75 µM (read-out: 2-DG uptake (percent uptake relative to vehicle), AVE, PfHT, 0.75 µM compound): 76.1%
remaining activity at 1.25 µM [7]: 80.1%
remaining activity at 2.5 µM [8]: 68.2%
remaining activity at 5 µM [9]: 53.2%
remaining activity at 10 µM [10]: 42.3%
remaining activity at 20 µM [11]: 30.2%
remaining activity at 40 µM [12]: 18.7%
remaining activity at 80 µM (read-out: 2-DG uptake (percent uptake relative to vehicle), AVE, PfHT, 80 µM compound): 9.91%
remaining activity at 160 µM (read-out: 2-DG uptake (percent uptake relative to vehicle), AVE, PfHT, 160 µM compound): 5.69%
remaining activity at 225 µM (read-out: 2-DG uptake (percent uptake relative to vehicle), AVE, PfHT, 225 µM compound): 6.88%
inhibition at 5 µM: 50.2%
IC50 (IC50 (µM), PfHT, 2-DG Uptake, single experiments Expt 1-3): 4.6 µM and 6.6 µM and 6.34 µM
IC50 [13]: 5.8 µM and 5.85 µM
IC50 [14]: 4.6 µM and 6.6 µM and 6.34 µM
2-DG uptake (percent uptake relative to vehicle), AVE (PfHT, 0.001 µM compound): 100.00
2-DG Uptake AVE (PfHT, concentration 0.001 µM, Expt 1-3): 100.00
Selectivity Index, 2-DG, PfHT line itself (reference value): 1.0

COc1c(Br)cc([N+](=O)[O-])c(OC)c1C(=O)NC(=O)Nc1c(C)cccc1Cl [WU-2, 3-(3-bromo-2,6-dimethoxy-5-nitrobenzoyl)-1-(2-chloro-6-methylphenyl)urea]
Maximum Inhibition (%): 84.4%
remaining activity at 0.001 µM [1]: 97.7%
remaining activity at 0.09375 µM [2]: 96%
remaining activity at 0.1875 µM [3]: 93.9%
remaining activity at 0.3125 µM [4]: 85%
remaining activity at 0.375 µM [5]: 79.7%
remaining activity at 0.625 µM [6]: 75.7%
remaining activity at 1.25 µM [7]: 68.5%
remaining activity at 2.5 µM [8]: 62.4%
remaining activity at 5 µM [9]: 50.6%
remaining activity at 10 µM [10]: 39.9%
remaining activity at 20 µM [11]: 26.3%
remaining activity at 40 µM [12]: 17.3%
inhibition at 5 µM: 47.9%
IC50 [13]: 4.2 µM and 4.15 µM
IC50 [14]: 3.01 µM and 3.83 µM and 5.61 µM
